Read-outs that look alike come from different tables or passages of the source.
Columns and labels:
Assay in all cases: 10-day Cell Titre Glo combination screen
Assay type in all cases: cell-based
BT-20 = settings: Homo sapiens; BT-20 breast; monotherapy; read-out: mono AC50
From the text: (§1) The Highest Single Agent (HSA) model is used to determine a combination's synergy score (and is based simply on the intuition that if a combination's effect exceeds the effect level of each of its constituents, there must be some combination interaction). Mathematically, the HSA model describes simple superposition of the single agent curves:
(§2) where CX,Y are the concentrations of the X and Y compound, and IX and IY are inhibitions of the single agents at CX,Y. It is also useful to calculate a volume score (HSA Volume) between the data and the HSA surface to characterise the overall strength of combination effects. Empirically derived combination matrices are compared to their respective HSA additivity models constructed from experimentally collected single agent dose response curves. Summation of this excess additivity across the dose response matrix is referred to HSA Volume.
(§3) Potency shifting can also be scored using combination index (CI). For a chosen iso-effect level (ICut), CI is calculated as: […]
(§4) where (CX/ECX) for a particular data point is the ratio of the X compound's measured concentration to its effective concentration at the chosen effect level. The CI is a rough estimate of how much drug was needed in combination relative to the single agent doses required to achieve the chosen effect level. CI values in the range of 0.5-0.7 are typical for in vitro measurements of current clinical combinations. The CI error (σCI) is calculated using standard error propagation through the CI calculation based on the isobologram errors.
(§5) This combination screen was a 10-day assay using Cell Titre Glo as the readout for viability.
(§6) The assay was performed in 384 well plates, with 1 cell line and 4 drug-drug combinations per plate dosed in a 6×6 matrix. A day zero reading was measured to determine growth inhibition. GenedataScreener was used to input the raw values for every well, and the software was programmed to normalise the values to the day zero and DMSO control values.
(§7) The CellTiter-Glo® Luminescent Cell Viability Assay is a homogeneous method to determine the number of viable cells in culture based on quantitation of the ATP present, which signals the presence of metabolically active cells. It relies on the properties of a proprietary thermostable luciferase (Ultra-Glo™ Recombinant Luciferase), which generates a stable “glow-type” luminescent signal and improves performance across a wide range of assay conditions.
(§8) The following information was reported: Synergy scores (HSA); combination index values; AC50 (half-maximal activity concentration) monotherapy values.

NCI-H810 = settings: Homo sapiens; NCI-H810 lung; monotherapy; read-out: mono AC50
From the text: as §1, §2, §3, §4, §5, §6, §7, §8

NCI-H3122 = settings: monotherapy, read-out: mono AC50
From the text: as §1, §2, §3, §4, §5, §6, §7, §8

DU4475 = settings: Homo sapiens, DU-4475; DU4475 breast; monotherapy; read-out: mono AC50
From the text: as §1, §2, §3, §4, §5, §6, §7, §8

MDA-MB-157 = settings: Homo sapiens; MDA-MB-157 breast; monotherapy; read-out: mono AC50
From the text: as §1, §2, §3, §4, §5, §6, §7, §8

NCI-H1573 = settings: Homo sapiens, NCI-H1573, 240 h, NCI-H1573 lung; monotherapy; read-out: mono AC50
From the text: as §1, §2, §3, §4, §5, §6, §7, §8

NCI-H1299 = settings: Homo sapiens; NCI-H1299 lung; monotherapy; read-out: mono AC50
From the text: as §1, §2, §3, §4, §5, §6, §7, §8

NCI-H522 = settings: Homo sapiens; NCI-H522 lung; monotherapy; read-out: mono AC50
From the text: as §1, §2, §3, §4, §5, §6, §7, §8

EFM-19 = settings: Homo sapiens; EFM-19 breast; monotherapy; read-out: mono AC50
From the text: as §1, §2, §3, §4, §5, §6, §7, §8

NCI-H2291 = settings: Homo sapiens; NCI-H2291 lung; monotherapy; read-out: mono AC50
From the text: as §1, §2, §3, §4, §5, §6, §7, §8

BT474C1 = BT474C1 breast; monotherapy; read-out: mono AC50
From the text: as §1, §2, §3, §4, §5, §6, §7, §8

HCC1569 = settings: Homo sapiens; HCC1569 breast; monotherapy; read-out: mono AC50
From the text: as §1, §2, §3, §4, §5, §6, §7, §8

NCI-H2009 = settings: Homo sapiens; NCI-H2009 lung; monotherapy; read-out: mono AC50
From the text: as §1, §2, §3, §4, §5, §6, §7, §8

DMS53 = settings: Homo sapiens, DMS-53; DMS53 lung; monotherapy; read-out: mono AC50
From the text: as §1, §2, §3, §4, §5, §6, §7, §8

HCC1187 = settings: Homo sapiens; HCC1187 breast; monotherapy; read-out: mono AC50
From the text: as §1, §2, §3, §4, §5, §6, §7, §8

LU99 = settings: Homo sapiens, Lu-99; LU99 lung; monotherapy; read-out: mono AC50
From the text: as §1, §2, §3, §4, §5, §6, §7, §8

NCI-H441 = settings: Homo sapiens; NCI-H441 lung; monotherapy; read-out: mono AC50
From the text: as §1, §2, §3, §4, §5, §6, §7, §8

HCC1806 = settings: Homo sapiens; HCC1806 breast; monotherapy; read-out: mono AC50
From the text: as §1, §2, §3, §4, §5, §6, §7, §8

NCI-H23 = settings: Homo sapiens; NCI-H23 lung; monotherapy; read-out: mono AC50
From the text: as §1, §2, §3, §4, §5, §6, §7, §8

MCF7 F100-16 = settings: Homo sapiens; MCF7 F100-16 breast; monotherapy; read-out: mono AC50
From the text: as §1, §2, §3, §4, §5, §6, §7, §8

NCI-H1373 = settings: Homo sapiens; NCI-H1373 lung; monotherapy; read-out: mono AC50
From the text: as §1, §2, §3, §4, §5, §6, §7, §8

NCI-H358 = settings: Homo sapiens; NCI-H358 lung; monotherapy; read-out: mono AC50
From the text: as §1, §2, §3, §4, §5, §6, §7, §8

MDA-MB-134IV = MDA-MB-134IV breast; monotherapy; read-out: mono AC50
From the text: as §1, §2, §3, §4, §5, §6, §7, §8

MDA-MB-231 = settings: Homo sapiens; MDA-MB-231 breast; monotherapy; read-out: mono AC50
From the text: as §1, §2, §3, §4, §5, §6, §7, §8

C[C@@H]1COCCN1c1cc(C2([S@](C)(=N)=O)CC2)nc(-c2ccnc3[nH]ccc23)n1 [AZD6738, 4-{4-[(3R)-3-Methylmorpholin-4-yl]-6-[1-((R)—S-methylsulfonimidoyl)cyclopropyl]pyrimidin-2-yl}-1H-pyrrolo[2,3-b]-pyridine]
AC50 (BT-20): 723 nM
AC50 (NCI-H810): 3350 nM
AC50 (NCI-H3122; Homo sapiens, NCI-H3122, NCI-H3122 lung): 3120 nM
AC50 (NCI-H3122; NCI-H3122 lung): 3210 nM
AC50 (DU4475): 3250 nM
AC50 (MDA-MB-157): 732 nM
AC50 (NCI-H1573): 1390 nM
AC50 (NCI-H1299): 3180 nM
AC50 (NCI-H522): 5650 nM
AC50 (EFM-19): 14300 nM
AC50 (NCI-H2291): 1120 nM
AC50 (BT474C1): 3830 nM
AC50 (HCC1569): 957 nM
AC50 (NCI-H2009): 1020 nM
AC50 (DMS53): 2180 nM
AC50 (HCC1187): 531 nM
AC50 (LU99): 581 nM
AC50 (NCI-H441): 2960 nM
AC50 (HCC1806): 412 nM
AC50 (NCI-H23): 221 nM
AC50 (MCF7 F100-16): 1730 nM
AC50 (NCI-H1373): 1240 nM
AC50 (NCI-H358): 2670 nM
AC50 (MDA-MB-134IV): 5780 nM
AC50 (MDA-MB-231): 866 nM
